From patent US9011935B2, “Therapeutic composition and use” (priority 2006, dated 2015)

What was measured:
[1] = system: Methicillin Resistant Staphylococcus Aureus (MRSA); test: Agar plate exposed to gaseous NO in a closed box (Example 5); type: cell-based; conditions: overnight incubation in closed box with NO gas, FIG. 5
Experimental: A Methicillin Resistant Staphylococcus Aureus (MRSA) culture was produced in the same manner as for Examples 1 to 4. The agar plate was placed in a polystyrene box. Gaseous NO was produced by reacting 10 ml 1M ascorbic acid with 5 ml 1M NaNO2 and 5 ml 1M KNO2 in the box and the lid of the box replaced immediately, followed by overnight incubation of the culture.

Candida Albicans (CA) = test: Agar plate antibacterial test (Example 2); conditions: liquid added to hollow circle of seeded agar plate, FIG. 2
Experimental: (§1) A 1M solution of potassium nitrite was prepared by diluting 8.51 g of KNO2 in 100 ml of distilled water. 17.612 g of ascorbic acid was diluted in 100 ml of distilled water to form a 1M solution. The three stock solutions were prepared a few minutes prior to the experiments.
(§2) A volume of NaNO2 and an equal volume of KNO2 were mixed with twice the volume of ascorbic acid in a sterile container to produce an “oxides of nitrogen” containing solution. A reaction between the nitrites and the acid occurred instantly. The gas produced was released and 2 ml of the premixed liquid (0.25M) was added to 20 ml of distilled water to give a final concentration of the solution of 1.25 mM.
(§3) Separate samples of NaNO2, KNO2 and ascorbic acid were also prepared as described above.
(§4) An overnight culture of bacteria was prepared by inoculating 20 ml of LB (Luria-Bertani 10 g Bacto-tryptone, +5 g Bacto-yeast extract, +10 g sodium chloride per liter, at pH 7.5) broth with 2 to 3 colonies, and incubating at 37° C. overnight. Broth cultures containing approximately 109 organisms were produced. Bacteria were diluted 1:1000 using phosphate buffer saline (PBS) and 100 μl of diluted broth cultures were seeded on the Brain-Heart agar plates. Prior to seeding bacteria on to the surface of the agar plates a piece of agar (approximately 70 mm in diameter) from the centre of the plates was removed. […]

[2] = system: Pseudomonas Aeruginosa (PS); test: Agar plate antibacterial test (Example 3); conditions: liquid added to hollow circle of seeded agar plate, FIG. 3
Experimental: as §1, §2, §3, §4

[3] = system: Coagulase negative Staphylococcus (CNS); test: Agar plate antibacterial test (Example 4); conditions: liquid added to hollow circle of seeded agar plate, FIG. 4
Experimental: as §1, §2, §3, §4

[4] = system: Methicillin Resistant Staphylococcus Aureus (MRSA); test: Agar plate antibacterial test (Example 1); conditions: liquid added to hollow circle of seeded agar plate, FIG. 1
Experimental: as §1, §2, §3, §4

[5] = pH change on addition of L-ascorbic acid to sodium nitrite (Examples 16 and 17); type: physicochemical; conditions: 1M sodium nitrite in normal saline, before acid addition
Experimental: The pH change was measured when L-ascorbic acid was added to sodium nitrite incrementally and as a single addition.
Analytical grade (>99% purity) sodium nitrite (NaNO2) and L-ascorbic acid (C6H8O6) from Sigma-Aldrich, UK were used. Saline (0.9% wv of NaCl) was from Baxter Healthcare-UK was also used.
Normal saline was used as solvent in the preparation of the solutions of sodium nitrite and ascorbic acid. All solutions were prepared at room temperature (22-25° C.) in lots of 25 or 50 ml and were used within 10-20 days. Stock solutions were kept in airtight vessels away from light.
All pH measurements of the solutions were carried out with a Wissenschaftlich-Technische Werkstätten (WTW) pH meter, model pH340i along with a SenTix 20 pH combination electrode incorporating a thermocouple. The electrode was calibrated with freshly prepared buffer calibrating solutions (pH 7.00 and 4.00±0.002). Calibrating solutions were prepared from ALDRICH Tri-check buffer capsules, Aldrich, USA.
The pH of the solutions was measured with the addition of a standard magnetic stir bar operating at 60 rpm. At least 12 ml of solutions were used to ensure that the electrode was completely immersed. 1M solutions of sodium nitrite and ascorbic acid were prepared using normal saline as solvent. In Example 16, 1 ml of acid was added to the nitrite every 10 minutes. […]

[N]=O [Gaseous NO, nitric oxide]
visible bacterial cultures on agar plate [1]: no remaining visible bacterial cultures

O=C1O[C@H]([C@@H](O)CO)C(O)=C1O [A, ascorbic acid]
bacterial colonies on agar plate (Candida Albicans (CA)): large amount of bacteria | bacterial colonies on agar plate [2]: large amount of bacteria | bacterial colonies on agar plate [3]: large amount of bacteria | bacterial colonies on agar plate [4]: large amount of bacteria

O=NO [sodium nitrite solution, sodium nitrite]
initial pH [5]: approximately 7.35
